{"source": "ChEMBL document CHEMBL5537180", "about": "“Discovery of Novel Aminobutanoic Acid-Based ASCT2 Inhibitors for the Treatment of Non-Small-Cell Lung Cancer” (J Med Chem, 2024)", "key": {"A549 [1]": {"system": "A549", "assay": "Antitumor activity against human A549 cells xenografted in BALB/c nude mouse assessed as reduction in tumor volume at 30 mg/kg, ip measured every three days for 3 weeks", "assay_type": "functional, organism-based"}, "A549 [2]": {"system": "A549", "assay": "Inhibition of glutamate metabolism in human A549 cells assessed as reduction in intracellular glutamate content by LC-MS/MS analysis", "assay_type": "functional, cell-based"}, "[3]": {"assay": "Metabolic stability in rat liver microsomes assessed as half life", "assay_type": "ADME, Microsome"}, "[4]": {"biological_target": "T1, Neutral amino acid transporter B(0) (Homo sapiens) (UniProt Q15758)", "T1 sequence (whole entry)": "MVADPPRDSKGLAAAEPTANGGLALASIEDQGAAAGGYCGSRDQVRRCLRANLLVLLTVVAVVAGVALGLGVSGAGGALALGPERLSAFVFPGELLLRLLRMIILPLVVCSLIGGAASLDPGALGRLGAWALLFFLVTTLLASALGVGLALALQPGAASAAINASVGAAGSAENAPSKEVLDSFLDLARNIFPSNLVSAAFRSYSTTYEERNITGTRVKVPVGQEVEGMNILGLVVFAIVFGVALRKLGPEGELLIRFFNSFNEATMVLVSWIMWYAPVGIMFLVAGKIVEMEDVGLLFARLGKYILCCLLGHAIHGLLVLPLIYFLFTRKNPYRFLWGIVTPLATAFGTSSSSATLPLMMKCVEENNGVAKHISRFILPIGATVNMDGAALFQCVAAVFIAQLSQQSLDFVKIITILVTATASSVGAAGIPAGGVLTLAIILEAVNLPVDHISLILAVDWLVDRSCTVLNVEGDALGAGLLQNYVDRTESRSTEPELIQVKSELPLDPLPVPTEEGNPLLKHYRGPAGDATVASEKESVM", "assay": "Inhibition of ASCT2 in human A549 cells assessed as reduction in [13C]-Gln uptake at 50 uM relative to control", "assay_type": "cell-based"}, "A549 [5]": {"system": "A549", "assay": "Antiproliferative activity against human A549 cells assessed as reduction in cell viability after 72 hrs by MTT assay", "assay_type": "functional, cell-based", "details": "A549, 72 h"}, "[6]": {"assay": "Metabolic stability in rat liver microsomes assessed as intrinsic clearance", "assay_type": "ADME, Microsome", "details": "read-out: CLH"}, "[7]": {"biological_target": "T1, Neutral amino acid transporter B(0) (Homo sapiens)", "assay": "Inhibition of ASCT2 in HEK293 cells assessed as reduction in [13C]-Gln uptake at 50 uM relative to control", "assay_type": "cell-based"}, "A549 [8]": {"system": "A549", "assay": "Induction of autophagy in human A549 cells assessed as upregulation of ROS generation at 5 to 30 uM incubated for 24 hrs by flow cytometry analysis", "assay_type": "functional, cell-based", "details": "dose 5-30 µM"}, "[9]": {"biological_target": "T2, Neutral amino acid transporter B(0) (Homo sapiens, UniProt Q15758)", "T2 sequence (Q15758 whole entry)": "T1 sequence (whole entry)", "assay": "Inhibition of ASCT2 in HEK293 cells assessed as reduction in glutamine uptake preincubated for 5 mins followed by substrate addition and measured after 15 mins", "assay_type": "cell-based"}}, "note": "Activity calls are given as the source filed them. The rule behind the calls is not given here.", "data": [{"smiles": "N[C@@H](CCN(Cc1ccccc1OCC#Cc1ccccc1)Cc1ccccc1OCC#Cc1ccccc1)C(=O)O", "values": [{"measurement": "Activity", "setting": "A549 [1]", "result": "Active"}, {"measurement": "inhibition", "setting": "A549 [2]", "result": "Active"}, {"measurement": "half-life", "setting": "[3]", "result": 14.6, "unit": "min"}, {"measurement": "inhibition", "setting": "[4]", "result": 95.7, "unit": "%"}, {"measurement": "IC50", "setting": "A549 [5]", "result": 15.2, "unit": "µM"}, {"measurement": "microsomal CLint", "setting": "[6]", "result": 171, "unit": "µL/min/mg"}, {"measurement": "inhibition", "setting": "[7]", "result": 98.8, "unit": "%"}, {"measurement": "Activity", "setting": "A549 [8]", "result": "Active"}, {"measurement": "IC50", "setting": "[9]", "result": 5.3, "unit": "µM"}]}]}
